Experimental data from patent WO2015077660A1, “Enzyme reactor system enabling enhanced enzymatic digestion, analyte solubility and improved mass spectrometric compatibility” (priority 2013, dated 2014).

Experiments:
trypsin = assay: Insulin digestion in immobilized enzyme reactor, buffer screening (Table 7); format: biochemical, porcine; settings: IMER, 70°C, 60 s
porcine trypsin = test system: T1, porcine trypsin; assay: Insulin digestion by trypsin in solution, buffer screening (Table 9); format: biochemical; settings: 37°C, 18 h
T1 construct: purchased

Structure (SMILES)	Digested (trypsin; 5%)	Peptide (trypsin; 5%)	Undigested (trypsin; 5%)	Digested (trypsin; 10%)	Peptide (trypsin; 10%)	Undigested (trypsin; 10%)	Digested (trypsin; 15%)	Peptide (trypsin; 15%)	Undigested (trypsin; 15%)	Digested (trypsin; 20%)	Peptide (trypsin; 20%)	Undigested (trypsin; 20%)	Digested (porcine trypsin; 5%)	Peptide (porcine trypsin; 5%)	Undigested (porcine trypsin; 5%)	Digested (porcine trypsin; 10%)	Peptide (porcine trypsin; 10%)	Undigested (porcine trypsin; 10%)	Digested (porcine trypsin; 15%)	Peptide (porcine trypsin; 15%)	further results
CC#N [ACN, acetonitrile]	1344796	568057	3327305	719966	309638	4860471	292205	116402	5326017	194140	86754	6433237	1409360	625535	5143004	1676314	692364	4742266	1925305	779339	Undigested (porcine trypsin; 15%): 2715010; Digested (porcine trypsin; 20%): 2507679; Peptide (porcine trypsin; 20%): 1020020; Undigested (porcine trypsin; 20%): 3445401
C[S+](C)[O-] [DMSO, dimethylsulfoxide]	1804007	719810	2280353	1483343	618353	2811668	1058609	437967	3394971	722730	296540	3631216	1193067	499051	3219771	1185116	442885	3803031	1233021	481657	Undigested (porcine trypsin; 15%): 4423224; Digested (porcine trypsin; 20%): 1215388; Peptide (porcine trypsin; 20%): 467559; Undigested (porcine trypsin; 20%): 4523186
O=S(=O)(O)CCN1CCN(CCO)CC1 [HEPES]																					Digested (trypsin; 50 mM): 2438065; Peptide (trypsin; 50 mM): 1040553; Undigested (trypsin; 50 mM): 1152957; Digested (porcine trypsin; 50 mM): 1758816; Peptide (porcine trypsin; 50 mM): 758959; Undigested (porcine trypsin; 50 mM): 2816170
CC(C)O [IPA, isopropyl alcohol]	696091	291902	4427643	208098	86945	5774155	126129	52332	5930073	135325	55155	5148164	1024085	407876	3528233	1133300	418703	3935383	906822	322103	Undigested (porcine trypsin; 15%): 4509078; Digested (porcine trypsin; 20%): 954036; Peptide (porcine trypsin; 20%): 347874; Undigested (porcine trypsin; 20%): 4992140
CO [MeOH, methanol]	1511720	627591	2902781	1001203	417070	3946896	675569	277958	5012221	518131	213935	5268985	1415794	576911	5318134	216568	88569	4800365	1700395	666807	Undigested (porcine trypsin; 15%): 4218905; Digested (porcine trypsin; 20%): 1986863; Peptide (porcine trypsin; 20%): 756073; Undigested (porcine trypsin; 20%): 3394642
